Like-named read-outs stand apart in the source and are kept apart here.
Tests used:
NAMPT = biological target: T1, NAMPT (Homo sapiens, UniProt P43490); assay: Biochemical inhibition assay: NAMPT enzymatic reaction, NMN quantified by mass spectrometry; conditions: read-out: Biochem IC50
T1 construct: His tag; host or cells: E. coli
How it was run: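 Inhibition of E. coli-expressed His-tagged human NAMPT, measured as NMN formation by mass spectrometry after a 30 min room-temperature reaction containing 1 μM NAM, 100 μM PRPP and 2.5 mM ATP.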

A2780 cells = assay: In-vitro cell proliferation assay (SRB), A2780 cells; assay type: cell-based; conditions: Homo sapiens, A2780, 72 h, A2780 cells, 72 hours, read-out: A2780 IC50
How it was run: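 Cells were plated overnight at 37° C., 5% CO2, then exposed to serially diluted compounds (0.1% DMSO final) for 72 hours. Viable cells were measured by sulforhodamine B staining after TCA fixation, read at 570 nm; media-only background was subtracted before % inhibition was calculated.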

T1 sequence (P43490 whole entry): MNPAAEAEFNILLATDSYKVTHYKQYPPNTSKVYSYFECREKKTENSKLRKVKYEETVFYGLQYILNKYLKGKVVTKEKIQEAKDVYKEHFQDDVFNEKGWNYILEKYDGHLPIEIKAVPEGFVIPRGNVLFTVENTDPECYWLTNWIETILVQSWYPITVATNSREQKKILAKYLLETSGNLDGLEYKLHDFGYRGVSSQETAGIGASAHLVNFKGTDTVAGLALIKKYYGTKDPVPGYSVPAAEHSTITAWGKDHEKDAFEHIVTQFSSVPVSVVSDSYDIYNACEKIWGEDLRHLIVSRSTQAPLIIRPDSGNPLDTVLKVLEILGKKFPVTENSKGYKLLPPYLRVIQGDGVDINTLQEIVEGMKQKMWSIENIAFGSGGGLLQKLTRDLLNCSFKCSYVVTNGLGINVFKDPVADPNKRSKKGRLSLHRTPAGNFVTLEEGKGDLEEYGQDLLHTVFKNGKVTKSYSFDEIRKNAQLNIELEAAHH

Structure (SMILES) | IC50 (NAMPT; NAMPT enzymatic reaction) | IC50 (A2780 cells; SRB) | IC50 (NAMPT; NAMPT enzymatic assay) | IC50 (A2780 cells; SRB assay)
CCCCOc1ccc(S(=O)(=O)c2ccc(CNC(=O)c3cc4ccncc4s3)cc2)c(C)c1 | 3.3 nM | 100 to 1000 nM |  | 
Cn1ncc2cccc(S(=O)(=O)c3ccc(CNC(=O)c4cc5ccncc5o4)cc3)c21 [N-{[4-(1-methyl-1H-indazole-7-sulfonyl)phenyl]methyl}furo[2,3-c]pyridine-2-carboxamide] |  | 27.5 nM | 11.5 nM | 
CC(C)Oc1ccc(Cl)cc1S(=O)(=O)c1ccc(CNC(=O)c2cnc3nccn3c2)cc1 [N-[(4-{[5-chloro-2-(propan-2-yloxy)benzene]sulfonyl}phenyl)methyl]imidazo[1,2-a]pyrimidine-6-carboxamide] |  | 14.6 nM | 4.7 nM | 
CC(C)COc1cccc(S(=O)(=O)c2ccc(CNC(=O)c3ccc4nccn4c3)cc2)c1 |  | 10.6 nM | 15.7 nM | 
O=C(NCc1ccc(S(=O)(=O)c2cc(Cl)cc(Cl)c2)cc1)c1ccc2nccn2c1 [N-({4-[(3,5-dichlorobenzene)sulfonyl]phenyl}methyl)imidazo[1,2-a]pyridine-6-carboxamide] | 5.49 nM | 1.28 nM |  | 
O=C(NCc1ccc(S(=O)(=O)c2ccc(C(F)(F)F)c(Cl)c2)cc1)c1ccc2nccn2c1 |  | 1.2 nM | 2.9 nM | 
O=C(NCc1ccc(S(=O)(=O)c2ccccc2C(F)(F)F)cc1)c1cc2ccncc2o1 |  | 59.3 nM | 19.4 nM | 
CCCOc1ccc(S(=O)(=O)c2ccc(CNC(=O)c3cnc4[nH]ncc4c3)cc2)cc1Cl [N-({4-[(3-chloro-4-propoxybenzene)sulfonyl]phenyl}methyl)-1H-pyrazolo[3,4-b]pyridine-5-carboxamide] | 7.9 nM | 9.58 nM |  | 
O=C(NCc1ccc(S(=O)(=O)c2ccccc2CN2CCOCC2)cc1)c1cc2cnccc2[nH]1 [N-[(4-{[2-(morpholin-4-ylmethyl)benzene]sulfonyl}phenyl)methyl]-1H-pyrrolo[3,2-c]pyridine-2-carboxamide] | 34 nM |  |  | 6 nM
O=C(NCc1ccc(S(=O)(=O)c2ccc(F)c(OCC(F)(F)F)c2)cc1)c1cc2ccncc2s1 |  | 11.8 nM | 3.3 nM | 
O=C(NCc1ccc(S(=O)(=O)c2cc(Cl)cc(C(F)(F)F)c2)cc1)c1cnc2[nH]ncc2c1 [N-[(4-{[3-chloro-5-(trifluoromethyl)benzene]sulfonyl}phenyl)methyl]-1H-pyrazolo[3,4-b]pyridine-5-carboxamide] |  | 2.73 nM | 7.8 nM | 
CC(C)CNC(=O)c1cccc(S(=O)(=O)c2ccc(CNC(=O)c3cc4ccncc4s3)cc2)c1 [N-{[4-({3-[(2-methylpropyl)carbamoyl]benzene}sulfonyl)phenyl]methyl}thieno[2,3-c]pyridine-2-carboxamide] |  | 14.5 nM | 5.2 nM | 
O=C(NCc1ccc(S(=O)(=O)c2cnn(-c3cccc(Cl)c3)c2)cc1)c1cc2ccncc2s1 [N-({4-[1-(3-chlorophenyl)-1H-pyrazole-4-sulfonyl]phenyl}methyl)thieno[2,3-c]pyridine-2-carboxamide] |  | 13.9 nM | 4.1 nM | 
COc1ccc(S(=O)(=O)c2ccc(CNC(=O)c3cnc4nccn4c3)cc2)cc1OC | 2.9 nM | 7.3 nM |  | 
CCOc1ccc(S(=O)(=O)c2ccc(CNC(=O)c3ccc4nccn4c3)cc2)c(C)c1 | 6.6 nM | 11.1 nM |  | 
CC(=O)c1cccc(S(=O)(=O)c2ccc(CNC(=O)c3cc4ccncc4s3)cc2)c1 [N-({4-[(3-acetylbenzene)sulfonyl]phenyl}methyl)thieno[2,3-c]pyridine-2-carboxamide] | 4 nM |  |  | 2.6 nM
Cc1ccc(Cl)cc1S(=O)(=O)c1ccc(CNC(=O)c2cc3ccncc3o2)cc1 | 5.8 nM | 7.8 nM |  | 
O=C(NCc1ccc(S(=O)(=O)c2ccccc2)cc1)N1CCc2[nH]cnc2C1 [N-{[4-(benzenesulfonyl)phenyl]methyl}-1H,4H,5H,6H,7H-imidazo[4,5-c]pyridine-5-carboxamide] | > 2000 nM |  |  | > 2000 nM
O=C(NCc1ccc(S(=O)(=O)Nc2ccccc2Oc2ccccc2)cc1)c1cc2cnccc2[nH]1 [N-({4-[(2-phenoxyphenyl)sulfamoyl]phenyl}methyl)-1H-pyrrolo[3,2-c]pyridine-2-carboxamide] | 4020 nM |  |  | 12000 nM
Cc1cc(F)cc(S(=O)(=O)c2ccc(CNC(=O)c3cc4cnccc4[nH]3)cc2)c1 | 8.3 nM | 1.8 nM |  | 
O=C(NCc1ccc(S(=O)(=O)Nc2cccc3cccnc23)cc1)c1cc2cnccc2[nH]1 [N-({4-[(quinolin-8-yl)sulfamoyl]phenyl}methyl)-1H-pyrrolo[3,2-c]pyridine-2-carboxamide] | 75 nM |  |  | 1480 nM
Cc1cc(S(=O)(=O)c2ccc(CNC(=O)c3cc4ccncc4o3)cc2)ccc1F | 13.2 nM | 6 nM |  | 
COc1ccc(S(=O)(=O)c2ccc(CNC(=O)c3cnc4[nH]ncc4c3)cc2)c(OC)c1 | 174 nM | 44.7 nM |  | 

Structure (SMILES) | IC50 (NAMPT; NAMPT enzymatic reaction) | IC50 (A2780 cells; SRB) | IC50 (NAMPT; NAMPT enzymatic assay) | IC50 (A2780 cells; SRB assay)
CCCOc1cccc(F)c1S(=O)(=O)c1ccc(CNC(=O)c2cc3ccncc3s2)cc1 | 11.5 nM | 29.3 nM |  | 
O=C(NCc1ccc(S(=O)(=O)c2cc(F)ccc2CO)cc1)c1ccc2nccn2c1 |  | 65 nM | 10.4 nM | 
O=C(NCc1ccc(S(=O)(=O)c2ccccc2C(F)(F)F)cc1)c1cnc2nccn2c1 |  | 100 to 1000 nM | 10 nM | 
Cc1ccc(S(=O)(=O)c2ccc(CNC(=O)c3cc4ccncc4s3)cc2)s1 [N-{[4-(5-methylthiophene-2-sulfonyl)phenyl]methyl}thieno[2,3-c]pyridine-2-carboxamide] | 5 nM |  |  | 7.7 nM
Cc1ccncc1S(=O)(=O)c1ccc(CNC(=O)c2cnc3nccn3c2)cc1 [N-{[4-(4-methylpyridine-3-sulfonyl)phenyl]methyl}imidazo[1,2-a]pyrimidine-6-carboxamide] |  | 100 to 1000 nM | 19.1 nM | 
COc1cc(F)ccc1S(=O)(=O)c1ccc(CNC(=O)c2cc3ccncc3o2)cc1 | 12.7 nM | 16 nM |  | 
O=C(NCc1ccc(S(=O)(=O)c2cnn(-c3cccc(Cl)c3)c2)cc1)c1cnc2nccn2c1 [N-({4-[1-(3-chlorophenyl)-1H-pyrazole-4-sulfonyl]phenyl}methyl)imidazo[1,2-a]pyrimidine-6-carboxamide] |  | 11.5 nM | 2.2 nM | 
CN(C)C(=O)c1ccccc1S(=O)(=O)c1ccc(CNC(=O)c2cnc3nccn3c2)cc1 [N-[(4-{[2-(dimethylcarbamoyl)benzene]sulfonyl}phenyl)methyl]imidazo[1,2-a]pyrimidine-6-carboxamide] |  | 1000 to 10000 nM | 100 to 1000 nM | 
COc1ccc(S(=O)(=O)c2ccc(CNC(=O)c3cc4cnccc4[nH]3)cc2)cc1 [N-({4-[(4-methoxybenzene)sulfonyl]phenyl}methyl)-1H-pyrrolo[3,2-c]pyridine-2-carboxamide] | 11 nM |  |  | 9 nM
CCOc1ccc(S(=O)(=O)c2ccc(CNC(=O)c3cc4ccncc4s3)cc2)c(C)c1 | 1.2 nM | 13.2 nM |  | 
O=C(NCc1ccc(S(=O)(=O)c2ccc(N3CCOCC3)nc2)cc1)c1cc2cnccc2[nH]1 [N-({4-[6-(morpholin-4-yl)pyridine-3-sulfonyl]phenyl}methyl)-1H-pyrrolo[3,2-c]pyridine-2-carboxamide] |  | 1.5 nM | 9.6 nM | 
Cc1nc(S(=O)(=O)c2ccc(CNC(=O)c3cnc4[nH]ncc4c3)cc2)cs1 [N-{[4-(2-methyl-1,3-thiazole-4-sulfonyl)phenyl]methyl}-1H-pyrazolo[3,4-b]pyridine-5-carboxamide] |  | 20.7 nM | 82.8 nM | 
COc1ccc(F)cc1NS(=O)(=O)c1ccc(CN/C(=N\C#N)Nc2ccncc2)cc1 [(E)-2-cyano-3-({4-[(5-fluoro-2-methoxyphenyl)sulfamoyl]phenyl}methyl)-1-(pyridin-4-yl)guanidine] | 1.1 nM | 3 nM |  | 
O=C(NCc1ccc(S(=O)(=O)c2cccc(OCC(F)(F)F)c2)cc1)c1ccc2nccn2c1 |  | 5.9 nM | 15 nM | 
COc1ccc(Cl)c(S(=O)(=O)c2ccc(CNC(=O)c3ccc4nccn4c3)cc2)c1 | 5.6 nM | 2.7 nM |  | 
CCOCc1ccccc1S(=O)(=O)c1ccc(CNC(=O)c2cc3cnccc3[nH]2)cc1 |  | 6.7 nM | 18.5 nM | 
Cc1cc(-n2cccn2)ccc1S(=O)(=O)c1ccc(CNC(=O)c2cnc3[nH]ncc3c2)cc1 |  | 23.5 nM | 27.1 nM | 
COc1ccc(F)cc1S(=O)(=O)c1ccc(CNC(=O)c2cnc3nccn3c2)cc1 | 7.3 nM | 26.1 nM |  | 
CN(C)c1cnc(S(=O)(=O)c2ccc(CNC(=O)c3ccc4nccn4c3)cc2)cn1 [N-({4-[5-(dimethylamino)pyrazine-2-sulfonyl]phenyl}methyl)imidazo[1,2-a]pyridine-6-carboxamide] |  | 3.6 nM | 16 nM | 
O=C(NCc1ccc(S(=O)(=O)c2ccc(CO)cc2)cc1)c1ccc2nccn2c1 |  | 12.9 nM | 14.2 nM | 
COc1ccc(C(C)(C)C)cc1S(=O)(=O)c1ccc(CNC(=O)c2cc3ccncc3s2)cc1 [N-({4-[(5-tert-butyl-2-methoxybenzene)sulfonyl]phenyl}methyl)thieno[2,3-c]pyridine-2-carboxamide] | 15 nM |  |  | 4.6 nM
O=C(NCc1ccc(S(=O)(=O)c2ccc(C(F)(F)F)cc2Cl)cc1)c1cnc2nccn2c1 |  | 64.4 nM | 18.4 nM | 
O=C(NCc1ccc(S(=O)(=O)c2cccc(C(F)(F)F)n2)cc1)c1cnc2[nH]ncc2c1 [N-({4-[6-(trifluoromethyl)pyridine-2-sulfonyl]phenyl}methyl)-1H-pyrazolo[3,4-b]pyridine-5-carboxamide] |  | 11.1 nM | 24.2 nM | 

Source: US12336981B2, “Compounds and compositions for the inhibition of NAMPT” (Valo Health, Inc., priority 2010, dated 2025)
